Results as given in patent US8987510B2, “Method for removal of the cyclic diester of a 2-hydroxy alkanoic acid from a vapor” (Purac Biochem BV, priority 2011, dated 2015).

What was measured:
[1] = formation of lactide precipitates in circulating aqueous washing solution contacted with lactide-containing vapor
From the text: In a first experiment according to the invention, a vapor which contains lactide (i.e. the dehydrated cyclic diester of lactic acid or 2-hydroxy propanoic acid) is guided via vapor inlet pipeline 1 into wet washing column 2 shown in FIG. 1. […] Column 2 comprises packed bed 3, which extends over the whole internal diameter of the column. The column is further equipped with a vapor outlet pipeline 4 and a liquid distributor 5. The vapor travels through packed bed 3 and exits the column via vapor outlet pipeline 4. […] Pump 6 further sucks the vapor containing the cyclic diester, such as lactide, from inlet pipeline 1, through column 2, packed bed 3 and outlet line 4 to an exhaust collection system (not shown).
Column 2 further comprises a liquid storage compartment 7, which contains an aqueous solution. Additional liquid can be introduced in compartment 7 via liquid inlet pipeline 8. […] This solution is circulated through a liquid circulation system comprising liquid circulation pipeline 9, which circulation is powered by liquid pump 10. In practice, the aqueous solution is pumped from the liquid storage compartment 7 via pipeline 9 and heat exchanger 11 to liquid distributor 5. In distributor 5, the alkaline solution is converted from a liquid stream into small droplets. These droplets fall onto and distribute over the upper surface 12 of packed bed 3. Due to gravity, the droplets of the aqueous solution travel through packed bed 3 and fall in the aqueous solution present in storage compartment 7. The size of compartment 7 depends on residence time required under the operation conditions used.
During the whole experiment, the pH of the solution was maintained above 10. This was achieved by the addition of a base. In the present experiment, sodium hydroxide was used as the base. It appeared to be advantageous to add the base continuously, preferably in liquid form. For this experiment, a commercially available stock solution of 50 w/w-% of NaOH in water (Brenntag, technical grade) was used. […]

[2] = solubility behavior of mandelide in neutral, acid and alkaline aqueous solution, visual inspection; format: physicochemical; conditions: 2% by weight mandelide, 20° C., stirred
From the text: In additional experiments according to the present invention, the lactide was replaced by mandelide, the cyclic diester of 2-hydroxy-2-phenylacetic acid (also known as mandelic acid). The solubility behavior of mandelide in a neutral solution, an acid solution and an alkaline solution has been monitored and mutually compared. For this purpose, the acid aqueous solution was made by dissolving 10% by weight of mandelic acid in water. An alkaline aqueous solution was made by adding NaOH until a pH of 13 was reached. The neutral aqueous solution consisted of pure, non-buffered water. To these three aqueous solutions, an amount of 2% by weight of mandelide was added. All solutions were kept at 20° C. and stirred for several hours. In this period of time, the solubility behavior of the mandelide in the aqueous solutions was followed by visual inspection.

Structure (SMILES) | lactide precipitates ([1]; alkaline aqueous solution, above pH 10, NaOH, around 15° C., approximately 15 mbar) | lactide precipitates ([1]; alkaline aqueous solution, pH between 7 and 10) | lactide precipitates ([1]; comparative: starting pH approximately 7, no base, pH drops below 4) | mandelide dissolved after 60 minutes ([2]; acid solution (10% by weight mandelic acid in water)) | added mandelide dissolved after 60 minutes ([2]; alkaline solution (NaOH, pH 13)) | mandelide dissolved after 60 minutes ([2]; neutral solution (pure, non-buffered water))
CC1OC(=O)C(C)OC1=O (stereo not drawn) [lactide] | no lactide precipitates have been observed | formation of small lactide precipitates can occur | part of the dissolved lactide precipitates | – | – | –
O=C1OC(c2ccccc2)C(=O)OC1c1ccccc1 (stereo not drawn) [mandelide] | – | – | – | almost all of the added mandelide was still not dissolved | approximately 50% | not been dissolved at all
